The results in this text go back to PubChem BioAssay (NCI).

Among the test systems are LOX IMVI melanoma; A549 NSCLC; MOLT-4 leukemia; KM20L2 colon; MALME-3M melanoma; SW-620 colon; 786-0 renal; SNB-78 CNS; BT-549 breast; NCI/ADR-RES ovarian.
Common to all, as to experiment: DTP human tumour cell line panel, 48 h

“And” between values parts separate entries of the source, which are not always exact repeats. Equal entries are not always repeated.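 These data come from cells grown in 96-well plates and exposed to compound for 48 hours at five concentrations. GI50 marks 50% less growth. TGI marks complete inhibition of growth.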

For `CC(=O)OCC1OC(Sc2ccccn2)C=CC1OC(C)=O` (stereo unspecified), the TGI in the assay on LOX IMVI melanoma, with A549 NSCLC, in the assay on MOLT-4 leukemia, with KM20L2 colon, in the assay with MALME-3M melanoma and in the assay with SW-620 colon was above 100 µM in each case. Moreover, the TGI with 786-0 renal is above 100 µM.

For `N#CC1=C(c2ccccc2)C(O)(c2ccccc2)NC1=O` (stereo unspecified), the TGI is above 100 µM with LOX IMVI melanoma; above 100 µM with A549 NSCLC; above 100 µM with MOLT-4 leukemia; above 100 µM with KM20L2 colon; 74 µM with MALME-3M melanoma; above 100 µM in the assay on SW-620 colon. The compound further registered a TGI in the assay with 786-0 renal above 100 µM.

`BrC12c3ccccc3Sc3ccccc3C1(Br)c1ccccc12` (stereo unspecified): the TGI in the assay on LOX IMVI melanoma was 29.7 µM; in the assay on A549 NSCLC, above 100 µM; in the assay with MOLT-4 leukemia, 35.8 µM; with KM20L2 colon it was 41.6 µM; with MALME-3M melanoma it was above 100 µM; in the assay with SW-620 colon it was above 100 µM. This compound yielded a TGI in the assay with 786-0 renal above 100 µM.

Turning to `c1ccc(C2N3CCCCC3[C@@H]3c4[nH]c5ccccc5c4CCN23)cc1` (stereo partly specified), the TGI in the assay with A549 NSCLC, in the assay on MOLT-4 leukemia, in the assay with SNB-78 CNS, in the assay on KM20L2 colon, in the assay on MALME-3M melanoma and in the assay on SW-620 colon was above 100 µM in each case. In addition, in the assay with 786-0 renal, the TGI was above 100 µM.

`C=C1C(=O)OC2/C=C(\C)C3OC3/C=C(/C(=O)OC)C(OC(C)=O)C(OC(=O)C(C)(O)C(C)OC(C)=O)C12` (stereo unspecified): the TGI in the assay on BT-549 breast is 2.37 µM; in the assay on LOX IMVI melanoma it was 3.61 µM; in the assay on A549 NSCLC, 35.5 µM; in the assay with MOLT-4 leukemia, 3.68 µM; in the assay with SNB-78 CNS, 12.4 µM; in the assay on MALME-3M melanoma, 7.88 µM. For the same compound, the figures for the TGI in the assay on SW-620 colon and in the assay on 786-0 renal were 2.25 µM and 8.27 µM, respectively.

With `CC(O[Si](C)(C)C)C1C=CC(C)n2c(=O)n(-c3ccccc3)c(=O)n21` (stereo unspecified), the TGI in the assay with A549 NSCLC, with MOLT-4 leukemia, in the assay with SNB-78 CNS, in the assay on MALME-3M melanoma and in the assay with 786-0 renal was above 100 µM in each case.

Consider `ClC[Si]12OCCN(CCO1)CCO2`, for which the TGI in the assay with A549 NSCLC, in the assay on MOLT-4 leukemia, in the assay with SNB-78 CNS, in the assay with MALME-3M melanoma, in the assay with SW-620 colon and in the assay with 786-0 renal was above 100 µM in each case.

For `CN(C)/C=N/c1nc2ncn(CCOC(=O)c3ccccc3)c2c(=O)[nH]1`, the TGI in the assay with LOX IMVI melanoma, with A549 NSCLC, in the assay with SNB-78 CNS, with KM20L2 colon, in the assay with MALME-3M melanoma and in the assay with SW-620 colon was above 100 µM each time. In the assay with 786-0 renal, this compound yielded a TGI above 100 µM.

Take `CSc1nc2c(c(=O)[nH]1)C(c1ccc(Cl)cc1)C1=C(N2)/C(=C/c2ccc(Cl)cc2)CNC1` (stereo unspecified): the GI50 in the assay on BT-549 breast is 1800 nM; in the assay on LOX IMVI melanoma, 1900 nM; in the assay with A549 NSCLC, 2210 nM; in the assay with MOLT-4 leukemia, 2450 nM; in the assay on NCI/ADR-RES ovarian, 3.29 µM; in the assay on MALME-3M melanoma, 4410 nM. The GI50 in the assay with SW-620 colon was 2860 nM; in the assay with 786-0 renal it was 2020 nM. Moreover, the TGI was determined as 3.68 µM in the assay with BT-549 breast; 3.81 µM with LOX IMVI melanoma; 5.91 µM in the assay on A549 NSCLC; 11 µM with MOLT-4 leukemia; 16.5 µM in the assay with NCI/ADR-RES ovarian; 19.2 µM in the assay on MALME-3M melanoma. Further, the TGI in the assay on SW-620 colon is 10 µM; in the assay with 786-0 renal, 4.46 µM.

As for `O=C(/C=C/c1cccnc1)c1ccccc1O`, the GI50 in the assay with BT-549 breast is 14200 nM; in the assay on LOX IMVI melanoma, 14400 nM; with A549 NSCLC it was 37100 nM; in the assay with MOLT-4 leukemia, 23000 nM; with NCI/ADR-RES ovarian, 24.6 µM; in the assay with MALME-3M melanoma, 22200 nM. The GI50 was 22500 nM with SW-620 colon and 17200 nM in the assay on 786-0 renal. Moreover, the TGI in the assay with BT-549 breast was 28.5 µM; in the assay on LOX IMVI melanoma it was 30.8 µM; in the assay with A549 NSCLC it was above 100 µM; with MOLT-4 leukemia it was 73.5 µM; in the assay on NCI/ADR-RES ovarian, above 100 µM; with MALME-3M melanoma it was 62.9 µM. The TGI worked out at 63.2 µM with SW-620 colon and 31.8 µM with 786-0 renal.

For the compound `COc1cc(C2C(C#N)=C(N)Oc3cc(O)ccc32)cc(OC)c1OC` (stereo unspecified), the GI50 was 419 nM with BT-549 breast; 546 nM in the assay with LOX IMVI melanoma; 625 nM with A549 NSCLC; 584 nM with MOLT-4 leukemia; 1.72 µM in the assay with NCI/ADR-RES ovarian; 644 nM in the assay with MALME-3M melanoma. The values for the 50% growth inhibitory concentration (GI50) in the assay with SW-620 colon and in the assay with 786-0 renal were 361 nM and 668 nM, respectively. Further, the concentration for total growth inhibition (TGI) in the assay on BT-549 breast was 33.3 µM; in the assay with LOX IMVI melanoma it was above 100 µM; with A549 NSCLC it was above 100 µM; in the assay on MOLT-4 leukemia, above 100 µM; in the assay with NCI/ADR-RES ovarian, above 100 µM; in the assay on MALME-3M melanoma, above 100 µM. The TGI with SW-620 colon and with 786-0 renal was above 100 µM each time.

`Cc1nc2cc(N)c(Cl)cc2[nH]1`: the TGI in the assay with BT-549 breast, in the assay on LOX IMVI melanoma, with A549 NSCLC, in the assay on MOLT-4 leukemia, in the assay with NCI/ADR-RES ovarian and in the assay with MALME-3M melanoma was above 100 µM in each case. Besides, the TGI with SW-620 colon and in the assay with 786-0 renal was above 100 µM in each case.

Regarding `CCSc1nc2n(c(=S)n1)CCN2C`, the TGI in the assay with LOX IMVI melanoma is 34.8 µM; in the assay on A549 NSCLC it was 61.3 µM; in the assay on MOLT-4 leukemia, 39.1 µM; in the assay on KM20L2 colon, 52.9 µM; in the assay on MALME-3M melanoma, 36.2 µM; with SW-620 colon, 56.9 µM. The compound also gave a TGI in the assay on 786-0 renal of 52 µM.

Regarding `NC[C@@](O)(c1ccc(Cl)cc1)c1ccc(-c2cn[nH]c2)cc1`, the GI50 was 892 nM and 1130 nM in the assay with BT-549 breast; 1590 nM in the assay on LOX IMVI melanoma; 1500 nM and 1410 nM with A549 NSCLC; 2140 nM and 1980 nM in the assay on MOLT-4 leukemia; 3.48 µM and 2.2 µM with NCI/ADR-RES ovarian; 1570 nM in the assay with MALME-3M melanoma. Moreover, the GI50 in the assay with SW-620 colon is 2130 nM and 1560 nM; in the assay with 786-0 renal it was 341 nM and 473 nM. The TGI in the assay on BT-549 breast is 3.91 µM and 7.63 µM; in the assay with LOX IMVI melanoma it was 3.04 µM; with A549 NSCLC, 4.08 µM and 3.21 µM; with MOLT-4 leukemia, above 100 µM; in the assay with MALME-3M melanoma, 3.08 µM; in the assay on 786-0 renal it was 10.6 µM and 2.2 µM.

What is called TGI is the concentration at which net growth stops. A low value points to greater sensitivity of the cells. Usually GI50 stands for the concentration that inhibits growth by half.
